Columns and labels:
plants = assay: Consideration of Use Examples 1 to 6: plant weight index versus no iron agent; type: in vivo; conditions: no irrigation with an iron agent = 100, based on Use Examples 1 to 6
Protocol: (§1) An aqueous solution of sodium ferrous citrate to be irrigated was prepared by adding 150 g of citric acid to 850 ml of tap water to produce citric acid water, then adding thereto 25 g of reduced iron powder, followed by stirring, and then adding to the resultant mixture 150 g of sodium hydrogen carbonate, followed by stirring and mixing.
The following consideration is made based on the results of Use Examples 1 to 6.
When the index in the case of no irrigation with an iron agent is 100, with respect to the plant's aboveground weight, it is 116 in the case of the irrigation with the aqueous solution of iron citrate and 209 in the case of the irrigation with the aqueous solution of sodium ferrous citrate, and with respect to the plant's root weight, it is 134 in the case of the irrigation with the aqueous solution of iron citrate and 464 in the case of the irrigation with the aqueous solution of sodium ferrous citrate.

[1] = Change of Fe2+ ion concentration of the aqueous solution in the production process; type: physicochemical; conditions: iron mixed with the citrate solution while stirring, FIGS. 1 to 4
Protocol: The aqueous solution of iron citrate is prepared by any one of the following methods: a method in which citric acid, solid iron and water are stirred and mixed together; a method in which solid iron is added to citric acid having been dissolved in water, followed by stirring and mixing; and a method in which solid iron and citric acid powder are added to a required amount of citric acid having been dissolved in water, followed by stirring and mixing while, if necessary, heating. To the thus obtained aqueous solution of iron citrate is mixed sodium hydrogen carbonate while, if necessary, heating, thereby producing an aqueous solution of sodium ferrous citrate. By the addition of sodium hydrogen carbonate, the aqueous solution of sodium ferrous citrate has been alkalized to have a pH value of from 5 to 8.
FIGS. 2 to 4 respectively show the change of the Fe^2+ ion concentration of aqueous iron agent solutions 1 to 3 for growth, each of which is produced by the above-mentioned method. […] Therefore, it is judged that the aqueous iron citrate solution is not suitable as an iron agent for growth.
In the cases of aqueous sodium ferrous citrate solutions 1 to 3 shown in FIGS. 2 to 4, the Fe^2+ ion concentration is confirmed to increase, differing from the case of the aqueous iron citrate solution shown in FIG. 1. […]

molokheiya = assay: Use Example 1: growth of molokheiya irrigated with iron agent; type: in vivo; conditions: irrigation once a week, after 30 days of cultivation, in comparison with the other plants (no iron agent, iron citrate)
Protocol: as §1
(§2) Plants not irrigated with an iron agent (left side of the figure), plants irrigated with an aqueous solution of iron citrate (center of the figure), and plants irrigated with an aqueous solution of sodium citrate (right side of the figure) as the iron supply preparation for growth of the present application were provided, and the plants were cultivated while performing irrigation on the plants at a rate of once a week, and the growth conditions after 30 days of cultivation are shown. Each of the aqueous solution of iron citrate and the aqueous solution of sodium ferrous citrate was diluted 10000 times so that the total iron content was 15000 ppm, and the Fe^2+ content was 3000 ppm for iron citrate and 12500 ppm for sodium ferrous citrate.

[2] = tested on: komatsuna (Japanese mustard spinach); assay: Use Example 2: growth of komatsuna irrigated with iron agent; type: in vivo; conditions: irrigation once a week, after 23 days of cultivation, in comparison with the other plants
Protocol: as §1
as §2, with “after 23” for “after 30”

okra = assay: Use Example 3: growth of okra irrigated with iron agent; type: in vivo; conditions: irrigation once a week, after 19 days of cultivation, in comparison with the other plants
Protocol: as §1
as §2, with “after 19” for “after 30”

red leaf lettuce = assay: Use Example 4: growth of red leaf lettuce irrigated with iron agent; type: in vivo; conditions: irrigation once a week, after 19 days of cultivation, in comparison with the other plants
Protocol: as §1
as §2, with “after 19” for “after 30”

parsley = assay: Use Example 5: growth of parsley irrigated with iron agent; type: in vivo; conditions: irrigation once a week, after 19 days of cultivation, in comparison with the other plants
Protocol: as §1
as §2, with “after 19” for “after 30”

Italian parsley = assay: Use Example 6: growth of Italian parsley irrigated with iron agent; type: in vivo; conditions: irrigation once a week, after 19 days of cultivation, in comparison with the other plants
Protocol: as §1
as §2, with “after 19” for “after 30”

Row | Substance | index of the plant's aboveground weight (plants) | index of the plant's root weight (plants) | change of the Fe^2+ ion concentration of the aqueous solution [1] | rooting (molokheiya) | weight of the aboveground part (molokheiya) | rooting [2] | weight of the aboveground part [2] | rooting (okra) | weight of the aboveground part (okra) | rooting (red leaf lettuce) | weight of the aboveground part (red leaf lettuce) | rooting (parsley) | weight of the aboveground part (parsley) | rooting (Italian parsley) | weight of the aboveground part (Italian parsley)
1 | iron citrate [reference compound] | 116 | 134 | not confirmed to increase |  |  |  |  |  |  |  |  |  |  |  | 
2 | sodium ferrous citrate | 209 | 464 |  | improvement | increase | improvement | increase | improvement | increase | improvement | increase | improvement | increase | improvement | increase
